Measurements taken from patent publication US9682090B2, “Methods for treating and preventing prostate cancer bone metastases” (University of Washington, priority 2014, dated 2017).

How the values were obtained:
PAP [1] = target: T1, PAP (Homo sapiens, UniProt P15309); details: Vovk et al. 2008; cited from earlier work
T1 sequence (P15309 33-386): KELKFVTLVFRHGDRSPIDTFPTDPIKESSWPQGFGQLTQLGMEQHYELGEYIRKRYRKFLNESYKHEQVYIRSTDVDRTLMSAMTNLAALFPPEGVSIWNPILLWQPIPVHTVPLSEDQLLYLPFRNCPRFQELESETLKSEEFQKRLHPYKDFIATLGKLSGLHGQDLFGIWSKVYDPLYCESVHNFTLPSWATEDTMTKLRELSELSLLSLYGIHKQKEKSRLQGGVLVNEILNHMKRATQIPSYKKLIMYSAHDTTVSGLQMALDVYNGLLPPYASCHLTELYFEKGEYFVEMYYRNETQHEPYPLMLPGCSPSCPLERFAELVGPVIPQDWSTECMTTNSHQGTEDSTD

MC3T3-E1 cells [2] = assay: Alizarin Red mineralization assay in MC3T3-E1 cells; type: cell-based, mouse; details: PA 25 μM down to 0.2 μM, MC3T3-E1 cells without PAP
MC3T3-E1 cells [3] = assay: Inhibition of LuCaP 23.1 CM-induced mineralization in MC3T3-E1 cells (Alizarin Red); type: cell-based, mouse; details: 5 μM PA
Experimental: (§1) Cultured cells, HCO or MC3T3-E1, were seeded at 50,000 cells/well in MEM and 10% FBS. MM was added to all cultures 1-2 days after seeding and replaced every other day. MM, LuCaP 23.1 CM (5%, 10%, or 20%), PAP, lyophilized powder obtained from human prostatic fluid (CSI 14633A; CELL SCIENCES®, Canton, Mass.) or phosphonic acid, P-[phenyl[(phenylmethyl)amino]methyl]- (CAS#25881-35-0; AURORA FINE CHEMICALS™ LLC, San Diego, Calif.) was added to cultures typically on day 5-6, before mineralization occurred. After mineralization, cells were fixed in 10% formalin for 20 minutes and then washed. 2% Alizarin Red was added to air-dried plates. After washing, retained dye was extracted in a solution of 20% methanol and 10% acetic acid in water, and absorbance was measured at 405 nm.
(§2) The benzylaminophosphonic acids are inhibitors of PAP (see Beers S A, et al. (1996) Bioorg Med Chem 4:1693-1701). […] To determine if PA would reduce LuCaP 23.1 CM associated mineralization, MC3T3-E1 cells were treated with 5% to 20% LuCaP 23.1 CM with 5 μM PA.

PAP [4] = target: T1, PAP; assay: Inhibition of PAP-induced mineralization in MC3T3-E1 cells (Alizarin Red); type: cell-based; set-up: PAP, lyophilized powder obtained from human prostatic fluid; purchased CELL SCIENCES, Canton, Mass; CSI 14633A; host or cells: natural protein from human prostatic fluid; added to mouse MC3T3-E1 cells; details: MC3T3-E1 cells treated with 0.05 units of PAP
Experimental: as §1, §2

| Structure (SMILES) | PAP inhibition (PAP [1]) | inhibition of mineralization by PA alone (MC3T3-E1 cells [2]) | effect on mineralization (MC3T3-E1 cells [3]; 5% LuCaP 23.1 CM) | effect on mineralization (MC3T3-E1 cells [3]; 10% LuCaP 23.1 CM) | effect on mineralization (MC3T3-E1 cells [3]; 20% LuCaP 23.1 CM) | decrease in mineralization (PAP [4]; 3.15 μM PA) [%] | decrease in mineralization (PAP [4]; 6.25 μM PA) [%] | decrease in mineralization (PAP [4]; 12.5 μM PA) [%] | decrease in mineralization (PAP [4]; 25 μM PA) [%] | lowest PA concentration with significant effect on mineralization (PAP [4]; PA tested 25 μM to 0.2 μM) [µM] |
| --- | --- | --- | --- | --- | --- | --- | --- | --- | --- | --- |
| O=P(O)(O)[C@@H](NCc1ccccc1)c1ccccc1 (single isomer, unassigned) [R enantiomer of P-[phenyl[(phenylmethyl)amino]methyl]-, P-[phenyl[(phenylmethyl)amino]methyl]-] | potent inhibitor | – | – | – | – | – | – | – | – | – |
| O=P(O)(O)C(NCc1ccccc1)c1ccccc1 (stereo not shown) [PA, [phenyl[(phenylmethyl)amino]methyl]-phosphonic acid] | – | No significant inhibition | significantly reduced mineralization | significantly reduced mineralization | significantly reduced mineralization | 97.9 | 92.1 | 95.6 | 97.6 | 0.4 |
